The values that follow come from patent US20150329883A1 (Samsung Electronics Co., Ltd., priority 2014, published 2015).

The test system of test [1] is S003/pGEX4-NCgl0275 strain. The test is described as follows: microbe, parasite or virus in culture. An excerpt:
A strain that overexpresses the fourteen SRGs was obtained by cloning the SRGs to Xhol/BamHI restriction site of a pGEX-4 vector to be expressed under an influence of a Ptuf promoter as described in “2. Preparation of pGEX_Ptuf::Ncgl1853, Ncgl1855, Ncgl2988, Ncgl2425, Ncgl2404, Ncgl0368, Ncgl2877, Ncgl0275, Ncgl2359, Ncgl1525, Ncgl0976, Ncgl2673, Ncgl2297, and Ncgl1524 vector” under “Material and Method”, and then introducing each of the vectors thus obtained to a Corynebacterium glutamicum S003 strain.

For test [2], the system named is Corynebacterium glutamicum S003 strain. As to conditions: 0.0625 M succinic acid, anaerobic, 5 hours, vs control without succinic acid. As for the experimental part: After isolating total RNA from the cultured cells by using RNeasy midi kit (Qiagen), a transciptome was analyzed by using a Corynebacterium glutamicum ATCC 13032, 3×20K chip microarray (MYcroarray.com) according the protocol of the same manufacturer. 6134 unique probes are immobilized on the chip, where each of the probes is a three-times repeat.

Test [3] relates to Corynebacterium S003 strain (Δldh, Δpta-ackA, ΔpoxB, and ΔactA). The test is described as follows: microbe, parasite or virus in culture. As to conditions: for IC50: Corynebacterium. As to the method:
In particular, for a seed culture, the strain was streaked on an active plate including agar 5 g/L of yeast extract, 10 g/L of beef extract, 10 g/L of polypeptone, 5 g/L of NaCl, and 20 g/L of agar, and then cultured at a temperature of 30° C. for about 48 hours. A single colony obtained therefrom was inoculated in 5 ml of a BHIS medium (including 37 g/L of brain-heart infusion agar, 91 g/L of D-sorbitol, pH 7.0) and grown overnight at a temperature of 30° C.
1 ml of the obtained culture solution was inoculated in a 25 ml of BHIS in a 250 ml flask and grown until an OD600 value was 5.0. The culture solution was centrifuged, a supernatant thereof was removed to collect the microorganism only, and the microorganism was washed with CGXII minimal medium. The CGXII minimal medium includes 20 g/L of (NH4)2SO4, 5 g/L of urea, 1 g/L of KH2PO4, 1 g/L of K2HPO4, 0.25 g/L of MgSO4.7H2O, 10 mg/L of CaCl2, 10 mg/L of FeSO4.7H2O, 0.1 mg/L of MnSO4.H2O, 1 mg/L of ZnSO4.7H2O, 0.2 mg/L of CuSO4.5H2O, […], 0.2 mg/L of biotin, 42 g/L of 3-morpholinopropanesulfonic acid (MOPS), and 4% (w/v) of glucose.

Where [4] appears, read: 0.25 M succinic acid, anaerobic, S003 strain.

≈ marks a conversion by molar mass, not a printed value. Where “and” joins values, the source holds several entries; their conditions need not be identical. Equal values may be shown once. Read-outs that look alike come from different tables or passages of the source.

A word on the IC50: it is the point on the concentration scale where inhibition reaches its midpoint. For `O=C(O)CCC(=O)O` [succinic acid], the IC50 in test [1] (Corynebacterium glutamicum, read-out: IC50 value of the glucose uptake rate) is 70.8 mg/mL (≈ 600 mM). Besides, the “increase of IC50 compared to the control group” value in test [1] (S003/pGEX4-NCgl0275 strain vs control) was “about 5.45 fold”. Besides, in test [2], the “Fold of reduction of expression, Ncgl0275 (whiB4)” value is listed as 1.56 fold; the “Fold of reduction of expression, Ncgl0368” value worked out at 1.60 fold; the “Fold of reduction of expression, Ncgl1524 (tpi/tpiA)” value came out at 1.700 fold; the “Fold of reduction of expression, Ncgl1853 (nrdR)” value turned out to be 4.24 fold. Besides, in test [2], the “Fold of reduction of expression, Ncgl1855 (lexA)” value is listed as 2.44 fold; the “Fold of reduction of expression, Ncgl2297 (mdh)” value came out at 1.700 fold; the “Fold of reduction of expression, Ncgl2359” value was found to be 1.52 fold; the “Fold of reduction of expression, Ncgl2404” value worked out at 1.73 fold. In test [2], the “Fold of reduction of expression, Ncgl2425” value is 1.74 fold; the “Fold of reduction of expression, Ncgl2673 (fda)” value is recorded as 1.820 fold; the “Fold of reduction of expression, Ncgl2877” value stood at 1.57 fold; the “Fold of reduction of expression, Ncgl2988 (parB)” value came to 1.91 fold. Besides, in test [2], the “reduction of expression of nine expected transcription regulator genes (NCgl1853, NCgl1855, NCgl0368, NCgl0275, NCgl2359, NCgl2404, NCgl2425, NCgl2988, NCgl2877)” value was no less than 1.5 fold. The “glucose uptake rate compared with control group” value in test [3] (0.0625 M succinic acid, after 15 hours) was “the same”. Also, the glucose uptake entry in test [3] (0.0625 M succinic acid, within the first 5 hours) is recorded as “suppressed”. Also, in test [3] (setting [4]), the “decrease of glucose uptake rate” value is listed as “about 66.4%” and the succinic acid production entry is listed as “almost not produced”. Also, the IC50 in test [3] (read-out: IC50 value of the glucose uptake rate) stood at 13 mg/mL (≈ 110 mM). Moreover, in test [3] (read-out: IC50 value of the succinic acid production), the IC50 was 100 mM and 11800 µg/mL.
